Experimental data as given in patent US20250026721A1, “COMPOUNDS AND METHODS FOR MODULATING RAS-PI3K” (Vividion Therapeutics, Inc., priority 2023, published 2025).

Molecular target: T1, PIK3CA_C242 (Homo sapiens, UniProt P42336)
T1 construct: endogenous in cells; host or cells: Jurkat cell lysate
Assay: Proteomic TE50 (IA-DTB / TMT mass spectrometry) in Jurkat cell lysate
Type: binding
Details: 1 hour at rt, 7-point dose response
Description: Example 4. Proteomic TE50 In vitro TE50 values for PIK3CA_C242 were obtained by treating 500 μg of cell lysate generated from Jurkat cells with DMSO or compound for 1 hour at rt followed by the addition of 200 μM desthiobiotin polyethyleneoxide iodoacetamide (IA-DTB) in DMSO for one hour at rt. Compounds were serially diluted 1:5 for a total of 7 points in order to generate dose response curves. Samples were then precipitated by the addition of 8× ice cold acetone and incubated at -80° C. for two hours. Protein was then pelleted by centrifugation (4,200 RPM, 45 min, 4° C.). The pelleted material was resuspended in 9M urea, 50 mM ammonium bicarbonate and proteins were reduced and alkylated by the addition of DTT and iodoacetamide (10 and 30 mM, respectively). Following reduction and alkylation, samples were exchanged into 2M urea (Zeba spin desalting plates, Thermo Fisher) and digested with Trypsin. IA-DTB labeled peptides were isolated with streptavidin agarose resin. Enriched peptides were eluted by the addition of 50% acetonitrile (ACN) 0.1% formic acid (FA) and dried in a SpeedVac vacuum concentrator. […] Reactions were quenched by the addition of 6.5 μL of 5% hydroxylamine. Samples were then combined and desalted on a Evolute express ABN plate (Biotage, 600-0010-PX01). Targeted TMT measurements were collected using an Orbitrap Lumos Tribrid Mass Spectrometer (Thermo Scientific) coupled to an UltiMate 3000 Series Rapid Separation LC system and autosampler (Thermo Scientific Dionex). Peptides were eluted onto a custom C18 capillary analytical column (75-μm inner diameter fused silica, packed with Acclaim PepMap C18 resin; Thermo Scientific) using an Acclaim PepMap 100 (Thermo 164535) loading column, and separated at a flow rate of […]. Data were acquired using a specific MS3-based TMT method targeting the peptide containing […], +2 charge state) where MS2 peptide fragmentation is triggered upon detection of the peptide precursor ion. Subsequent MS3 analysis was then performed using pre-selected peptide fragment ions that were isolated for fragmentation using synchronous precursor selection. RAW files were converted to MZXML format and searched with the SEQUEST algorithm using the […] software package. TMT quantitation was performed with a filter requiring at least ten summed signal-to-noise (S/N) for control channels. TE50 values were calculated from 7-point dose response curves created using the reporter ion S/N for each channel.

T1 sequence (P42336 whole entry): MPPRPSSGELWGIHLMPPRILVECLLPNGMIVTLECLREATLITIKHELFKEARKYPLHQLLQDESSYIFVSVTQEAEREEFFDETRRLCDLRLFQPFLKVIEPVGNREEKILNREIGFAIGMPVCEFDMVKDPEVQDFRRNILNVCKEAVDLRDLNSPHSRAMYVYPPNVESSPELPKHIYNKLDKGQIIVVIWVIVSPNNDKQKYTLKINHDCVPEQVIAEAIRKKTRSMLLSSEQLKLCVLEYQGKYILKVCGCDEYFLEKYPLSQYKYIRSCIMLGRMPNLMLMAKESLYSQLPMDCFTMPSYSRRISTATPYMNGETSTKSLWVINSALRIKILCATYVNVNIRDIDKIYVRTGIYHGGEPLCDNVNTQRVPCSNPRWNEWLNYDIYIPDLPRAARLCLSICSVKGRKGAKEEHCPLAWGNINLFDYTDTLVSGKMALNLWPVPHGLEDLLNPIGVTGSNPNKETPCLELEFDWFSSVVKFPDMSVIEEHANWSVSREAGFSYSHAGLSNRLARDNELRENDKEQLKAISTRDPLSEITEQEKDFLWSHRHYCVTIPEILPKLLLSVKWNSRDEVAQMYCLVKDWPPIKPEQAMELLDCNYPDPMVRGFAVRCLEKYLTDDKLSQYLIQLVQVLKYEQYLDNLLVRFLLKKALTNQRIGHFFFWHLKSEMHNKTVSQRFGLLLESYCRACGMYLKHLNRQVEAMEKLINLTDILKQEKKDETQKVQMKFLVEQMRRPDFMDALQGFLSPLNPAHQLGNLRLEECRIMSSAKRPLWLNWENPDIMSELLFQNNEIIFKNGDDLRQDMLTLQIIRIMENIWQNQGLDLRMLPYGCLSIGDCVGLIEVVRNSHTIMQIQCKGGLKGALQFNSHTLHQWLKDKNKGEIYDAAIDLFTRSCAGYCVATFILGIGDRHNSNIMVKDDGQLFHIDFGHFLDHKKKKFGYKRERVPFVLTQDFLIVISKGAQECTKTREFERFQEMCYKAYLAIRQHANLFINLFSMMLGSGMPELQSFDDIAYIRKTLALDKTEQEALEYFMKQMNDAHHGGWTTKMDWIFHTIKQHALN
T1 sequence (P27986 whole entry partner): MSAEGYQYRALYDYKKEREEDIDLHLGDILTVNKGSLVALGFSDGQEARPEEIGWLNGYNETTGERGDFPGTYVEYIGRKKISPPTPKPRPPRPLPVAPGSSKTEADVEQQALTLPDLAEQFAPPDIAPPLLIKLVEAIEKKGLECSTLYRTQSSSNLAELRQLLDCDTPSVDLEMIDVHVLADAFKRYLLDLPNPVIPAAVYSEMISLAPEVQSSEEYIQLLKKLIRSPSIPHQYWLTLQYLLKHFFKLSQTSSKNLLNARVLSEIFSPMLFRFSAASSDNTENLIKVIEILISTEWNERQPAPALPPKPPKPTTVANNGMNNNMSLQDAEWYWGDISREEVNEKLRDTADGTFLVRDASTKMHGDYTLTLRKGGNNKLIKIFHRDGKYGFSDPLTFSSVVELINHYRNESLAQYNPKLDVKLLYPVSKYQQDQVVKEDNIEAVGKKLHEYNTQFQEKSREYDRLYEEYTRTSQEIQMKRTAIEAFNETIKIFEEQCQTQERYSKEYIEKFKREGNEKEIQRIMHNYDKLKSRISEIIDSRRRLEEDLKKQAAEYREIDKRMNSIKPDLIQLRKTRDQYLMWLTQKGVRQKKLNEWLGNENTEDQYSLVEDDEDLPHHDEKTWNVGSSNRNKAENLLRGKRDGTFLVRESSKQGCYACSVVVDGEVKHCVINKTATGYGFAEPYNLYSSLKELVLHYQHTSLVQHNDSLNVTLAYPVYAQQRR

SMILES | IC50 [nM]
C[C@@H](/C=C\S(C)(=O)=O)NC(=O)C1(F)CCN(S(=O)(=O)c2ccc(Cl)cc2-c2cccc(Oc3ccccc3)c2)CC1 [Compound 267, (S,Z)-1-((5-chloro-3′-phenoxy-[1,1′-biphenyl]-2-yl)sulfonyl)-4-fluoro-N-(4-(methylsulfonyl)but-3-en-2-yl)piperidine-4-carboxamide] | 703
C[C@H](/C=C\S(C)(=O)=O)NC(=O)C1(F)CCN(S(=O)(=O)c2ccc(N3CCN(C(=O)OC(C)(C)C)CC3)cc2-c2ccccc2Cl)CC1 [Compound 118, tert-butyl (R,Z)-4-(2′-chloro-6-((4-fluoro-4-((4-(methylsulfonyl)but-3-en-2-yl)carbamoyl)piperidin-1-yl)sulfonyl)-[1,1′-biphenyl]-3-yl)piperazine-1-carboxylate] | 430
COc1cccc(-c2cc(Cl)cnc2S(=O)(=O)N2CCC(F)(C(=O)N[C@@H](C)/C=C\S(C)(=O)=O)CC2)c1 [Compound 200, (S,Z)-1-((5-chloro-3-(3-methoxyphenyl)pyridin-2-yl)sulfonyl)-4-fluoro-N-(4-(methylsulfonyl)but-3-en-2-yl)piperidine-4-carboxamide] | 788
CS(=O)(=O)/C=C/CNC(=O)C1(F)CCN(S(=O)(=O)c2ccc(Cl)cc2-c2ccccc2Cl)CC1 [Compound 40, (E)-1-((2′,5-dichloro-[1,1′-biphenyl]-2-yl)sulfonyl)-4-fluoro-N-(3-(methylsulfonyl)allyl)piperidine-4-carboxamide] | 210
C[C@H](/C=C\S(C)(=O)=O)NC(=O)C1(F)CCN(S(=O)(=O)c2ccc(C3CCC3)cc2-c2ccccc2Cl)CC1 [Compound 98, (R,Z)-1-((2′-chloro-5-cyclobutyl-[1,1′-biphenyl]-2-yl)sulfonyl)-4-fluoro-N-(4-(methylsulfonyl)but-3-en-2-yl)piperidine-4-carboxamide] | 520
COc1ccc(S(=O)(=O)N2CCC(F)(C(=O)N[C@@H](C)/C=C\S(C)(=O)=O)CC2)c(-c2ccccc2Cl)c1 [Compound 11, (S,Z)-1-((2′-chloro-5-methoxy-[1,1′-biphenyl]-2-yl)sulfonyl)-4-fluoro-N-(4-(methylsulfonyl)but-3-en-2-yl)piperidine-4-carboxamide] | 70.1
C[C@@H](/C=C\S(C)(=O)=O)NC(=O)C1(F)CCN(S(=O)(=O)c2ccc(Cl)cc2-c2ccccc2)CC1 [Compound 2, (S,Z)-1-((5-chloro-[1,1′-biphenyl]-2-yl)sulfonyl)-4-fluoro-N-(4-(methylsulfonyl)but-3-en-2-yl)piperidine-4-carboxamide] | 88.5
CC[C@H](/C=C\S(C)(=O)=O)NC(=O)C1(F)CCN(S(=O)(=O)c2ccc(N(C)C)cc2-c2ccccc2Cl)CC1 [Compound 85, (R,Z)-1-((2′-chloro-5-(dimethylamino)-[1,1′-biphenyl]-2-yl)sulfonyl)-4-fluoro-N-(1-(methylsulfonyl)pent-1-en-3-yl)piperidine-4-carboxamide] | 930
COc1ccc(S(=O)(=O)N2CCC(F)(C(=O)NC/C=C/S(C)(=O)=O)CC2)c(-c2ccccc2Cl)c1 [Compound 43, (E)-1-((2′-chloro-5-methoxy-[1,1′-biphenyl]-2-yl)sulfonyl)-4-fluoro-N-(3-(methylsulfonyl)allyl)piperidine-4-carboxamide] | 264
COc1ccc(S(=O)(=O)N2CCC(F)(C(=O)N[C@H](C)/C=C\S(C)(=O)=O)CC2)c(-c2cc(F)ccc2Cl)c1 [Compound 28, (R,Z)-1-((2′-chloro-5′-fluoro-5-methoxy-[1,1′-biphenyl]-2-yl)sulfonyl)-4-fluoro-N-(4-(methylsulfonyl)but-3-en-2-yl)piperidine-4-carboxamide] | 630
COc1cccc(-c2cc(Br)ccc2S(=O)(=O)N2CCC(F)(C(=O)NC/C=C/S(C)(=O)=O)CC2)c1 [Compound 63, (E)-1-((5-bromo-3′-methoxy-[1,1′-biphenyl]-2-yl)sulfonyl)-4-fluoro-N-(3-(methylsulfonyl)allyl)piperidine-4-carboxamide] | 360
COc1ccc(S(=O)(=O)N2CCC(F)(C(=O)N3CC(/C=C\S(C)(=O)=O)C3)CC2)c(-c2ccccc2Cl)c1 [Compound 230, (Z)-(1-((2′-chloro-5-methoxy-[1,1′-biphenyl]-2-yl)sulfonyl)-4-fluoropiperidin-4-yl)(3-(2-(methylsulfonyl)vinyl)azetidin-1-yl)methanone] | 140

Molecular target: T2, PIK3CA (Homo sapiens, UniProt P42336)
T2 construct: endogenous in cells; host or cells: Jurkat cell lysate
Assay: In vitro ELISA target engagement assay for PIK3CA in Jurkat cellular lysate (competition with PIK3CA Biotin Probe)
Type: binding
Details: 1 hour at rt, then 500 nM PIK3CA Biotin Probe, read-out: Elisa Target Engagement Assay (TE50)
Procedure, shortened: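 Jurkat lysate from sonicated frozen cells was preincubated 1 h at rt with serially diluted compound up to 200 μM, then labelled 1 h at rt with PIK3CA biotin probe at 500 nM final. Probe-bound PIK3CA was captured on antibody-coated plates and detected with Neutravidin-HRP luminescence; TE50 derived from the dose response.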

T2 sequence (P42336 whole entry): as the sequence (P42336 whole entry) above
T2 sequence (P27986 whole entry partner): as the sequence (P27986 whole entry partner) above

SMILES | IC50 [nM]
COC1(C(=O)N[C@H](C)/C=C\S(C)(=O)=O)CCN(S(=O)(=O)c2ccc(Br)cc2-c2ccccc2Cl)CC1 [Compound 133, (R,Z)-1-((5-bromo-2′-chloro-[1,1′-biphenyl]-2-yl)sulfonyl)-4-methoxy-N-(4-(methylsulfonyl)but-3-en-2-yl)piperidine-4-carboxamide] | 220
C[C@H](/C=C/C(=O)N1CC(F)(F)C1)NC(=O)[C@]1(F)CCN(S(=O)(=O)c2ccc(C#N)cc2-c2ccccc2Cl)[C@H](C)C1 [Compound 154, (2R,4S)-1-((2′-chloro-5-cyano-[1,1′-biphenyl]-2-yl)sulfonyl)-N-((R,E)-5-(3,3-difluoroazetidin-1-yl)-5-oxopent-3-en-2-yl)-4-fluoro-2-methylpiperidine-4-carboxamide] | 190
C[C@@H]1C[C@](F)(C(=O)NC/C=C\C(=O)N2CC(F)(F)C2)CCN1S(=O)(=O)c1cnc(C(F)(F)F)cc1-c1ccccc1Cl [Compound 289, (2R,4S)-1-((4-(2-chlorophenyl)-6-(trifluoromethyl)pyridin-3-yl)sulfonyl)-N-((Z)-4-(3,3-difluoroazetidin-1-yl)-4-oxobut-2-en-1-yl)-4-fluoro-2-methylpiperidine-4-carboxamide] | 460
C[C@H](/C=C\S(C)(=O)=O)NC(=O)[C@]1(F)CCN(S(=O)(=O)c2ccc(C#N)cc2-c2ccccc2Cl)[C@H](C)C1 [Compound 144, (2R,4S)-1-((2′-chloro-5-cyano-[1,1′-biphenyl]-2-yl)sulfonyl)-4-fluoro-2-methyl-N-((R,Z)-4-(methylsulfonyl)but-3-en-2-yl)piperidine-4-carboxamide] | 55
C[C@H](/C=C\S(C)(=O)=O)NC(=O)C1(F)CCN(S(=O)(=O)c2ccc(Br)cc2-c2cc(F)ccc2Cl)CC1 [Compound 48, (R,Z)-1-((5-bromo-2′-chloro-5′-fluoro-[1,1′-biphenyl]-2-yl)sulfonyl)-4-fluoro-N-(4-(methylsulfonyl)but-3-en-2-yl)piperidine-4-carboxamide] | 481
C[C@H](/C=C\S(C)(=O)=O)NC(=O)[C@@]1(F)CCCN(C(=O)[C@@H]2CN(CC(F)(F)F)C[C@@H]2c2c(F)ccc(F)c2Cl)CC1 (single isomer, unassigned) [Compound 226, (R)-1-((3*S,4*S)-4-(2-chloro-3,6-difluorophenyl)-1-(2,2,2-trifluoroethyl)pyrrolidine-3-carbonyl)-4-fluoro-N-((R,Z)-4-(methylsulfonyl)but-3-en-2-yl)azepane-4-carboxamide] | 170
O=C(/C=C\CNC(=O)C1(F)CCN(S(=O)(=O)c2ccc(Br)cc2-c2ccccc2Cl)CC1)N1CCC1 [Compound 286, (Z)-N-(4-(azetidin-1-yl)-4-oxobut-2-en-1-yl)-1-((5-bromo-2′-chloro-[1,1′-biphenyl]-2-yl)sulfonyl)-4-fluoropiperidine-4-carboxamide] | 640
O=C(N[C@@H]1C=CS(=O)(=O)C1)C1(F)CCN(S(=O)(=O)c2ccc(Br)cc2-c2ccccc2Cl)CC1 [Compound 66, (R)-1-((5-bromo-2′-chloro-[1,1′-biphenyl]-2-yl)sulfonyl)-N-(1,1-dioxido-2,3-dihydrothiophen-3-yl)-4-fluoropiperidine-4-carboxamide] | 37.9
C[C@H](/C=C\S(C)(=O)=O)NC(=O)C1(F)CCN(S(=O)(=O)c2cnc(C(F)(F)F)cc2-c2ccc(F)cc2Cl)CC1 [Compound 211, (R,Z)-1-((4-(2-chloro-4-fluorophenyl)-6-(trifluoromethyl)pyridin-3-yl)sulfonyl)-4-fluoro-N-(4-(methylsulfonyl)but-3-en-2-yl)piperidine-4-carboxamide] | 1000
CS(=O)(=O)/C=C/CNC(=O)C1(F)CCN(S(=O)(=O)c2ccc(Br)cc2-c2ccccc2Cl)CC1 [Compound 64, (E)-1-((5-bromo-2′-chloro-[1,1′-biphenyl]-2-yl)sulfonyl)-4-fluoro-N-(3-(methylsulfonyl)allyl)piperidine-4-carboxamide] | 75
